Source: ChEMBL document CHEMBL5244277, “A review upon medicinal perspective and designing rationale of DPP-4 inhibitors” (Bioorg Med Chem, 2021)
≈ marks a conversion by molar mass, not a printed value. Each block holds one compound with its values, some of them ahead of it.

Legend:
Mus musculus [1] = experiment: Antidiabetic activity in C57BL/6J mouse assessed as decrease in AUC of glucose at 3 mg/kg, po; format: functional; design: scale not given: the % may be the effect or the level left
Dipeptidyl peptidase 9 = Dipeptidyl peptidase 9 (Homo sapiens, UniProt Q86TI2); experiment: Inhibition of DPP-9 (unknown origin)
Chain of Dipeptidyl peptidase 9 (Q86TI2 whole entry): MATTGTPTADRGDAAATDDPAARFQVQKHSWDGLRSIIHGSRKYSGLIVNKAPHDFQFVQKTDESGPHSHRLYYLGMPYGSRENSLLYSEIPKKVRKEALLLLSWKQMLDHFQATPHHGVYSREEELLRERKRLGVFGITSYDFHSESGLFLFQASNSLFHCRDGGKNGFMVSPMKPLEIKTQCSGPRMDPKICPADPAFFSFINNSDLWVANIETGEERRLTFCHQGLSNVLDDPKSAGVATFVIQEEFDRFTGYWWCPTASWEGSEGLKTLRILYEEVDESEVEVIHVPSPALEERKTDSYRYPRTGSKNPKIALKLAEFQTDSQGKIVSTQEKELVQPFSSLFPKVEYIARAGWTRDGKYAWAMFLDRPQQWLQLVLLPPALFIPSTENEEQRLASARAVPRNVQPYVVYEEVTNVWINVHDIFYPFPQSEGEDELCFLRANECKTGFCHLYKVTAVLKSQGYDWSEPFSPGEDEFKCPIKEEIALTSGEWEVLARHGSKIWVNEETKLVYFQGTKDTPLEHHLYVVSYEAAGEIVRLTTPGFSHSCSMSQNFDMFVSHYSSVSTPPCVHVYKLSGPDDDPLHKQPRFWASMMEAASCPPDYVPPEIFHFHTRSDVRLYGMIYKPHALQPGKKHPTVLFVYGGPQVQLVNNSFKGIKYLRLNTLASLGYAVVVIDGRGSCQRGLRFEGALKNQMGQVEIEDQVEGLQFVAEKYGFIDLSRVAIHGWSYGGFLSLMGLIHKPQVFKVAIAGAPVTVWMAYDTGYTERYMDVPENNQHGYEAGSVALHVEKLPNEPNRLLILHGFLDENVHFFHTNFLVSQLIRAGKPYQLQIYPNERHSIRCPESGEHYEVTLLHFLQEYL

Dipeptidyl peptidase 8 = Dipeptidyl peptidase 8 (Homo sapiens, UniProt Q6V1X1); experiment: Inhibition of DPP-8 (unknown origin)
Chain of Dipeptidyl peptidase 8 (Q6V1X1 whole entry): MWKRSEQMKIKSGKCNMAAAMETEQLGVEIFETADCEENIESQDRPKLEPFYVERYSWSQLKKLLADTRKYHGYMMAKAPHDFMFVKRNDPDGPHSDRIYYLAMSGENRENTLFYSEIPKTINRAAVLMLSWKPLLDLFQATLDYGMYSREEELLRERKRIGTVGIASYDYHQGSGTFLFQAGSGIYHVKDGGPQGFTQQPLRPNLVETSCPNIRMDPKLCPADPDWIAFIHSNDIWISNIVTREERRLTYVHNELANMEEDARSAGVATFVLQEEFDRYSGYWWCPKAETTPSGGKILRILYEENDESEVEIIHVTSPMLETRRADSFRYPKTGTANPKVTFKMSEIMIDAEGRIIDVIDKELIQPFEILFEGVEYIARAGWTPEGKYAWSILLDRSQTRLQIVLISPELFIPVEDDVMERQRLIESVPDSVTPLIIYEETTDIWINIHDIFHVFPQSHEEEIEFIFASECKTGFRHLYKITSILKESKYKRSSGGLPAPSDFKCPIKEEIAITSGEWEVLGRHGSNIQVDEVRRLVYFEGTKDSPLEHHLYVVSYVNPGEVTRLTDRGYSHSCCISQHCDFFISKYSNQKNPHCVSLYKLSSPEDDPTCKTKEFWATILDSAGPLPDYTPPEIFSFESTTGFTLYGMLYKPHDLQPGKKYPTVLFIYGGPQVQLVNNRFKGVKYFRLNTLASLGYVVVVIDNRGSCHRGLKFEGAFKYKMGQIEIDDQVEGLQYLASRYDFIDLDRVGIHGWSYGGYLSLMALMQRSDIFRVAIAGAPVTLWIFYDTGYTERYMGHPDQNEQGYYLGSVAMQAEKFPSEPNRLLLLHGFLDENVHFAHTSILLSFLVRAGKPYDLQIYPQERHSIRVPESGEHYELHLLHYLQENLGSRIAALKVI

Mus musculus [2] = experiment: Hypoglycemic activity in ICR mouse assessed as reduction in blood glucose level at 30 mg/kg measured at 120 mins; format: ADME, organism-based; design: scale not given: the % may be the effect or the level left; conditions: in vivo, 2 h
Mus musculus [3] = experiment: Hypoglycemic activity in ICR mouse assessed as reduction in blood glucose level at 3 mg/kg measured at 120 mins; format: ADME, organism-based; design: scale not given: the % may be the effect or the level left; conditions: in vivo, 2 h
Homo sapiens [4] = species on record: Homo sapiens; experiment: Selectivity index, ratio of IC50 for human recombinant DPP-4 to IC50 for human recombinant DPP-9
Homo sapiens [5] = species on record: Homo sapiens; experiment: Selectivity index, ratio of IC50 for human recombinant DPP-4 to IC50 for human recombinant DPP-8
Dipeptidyl peptidase 4 [6] = molecular target: T1, Dipeptidyl peptidase 4 (Homo sapiens, UniProt P27487); experiment: Inhibition of human recombinant DPP-4 using H-Gly-Pro-aminomethylcoumarin as substrate
Target sequence in this assay (P27487 whole entry): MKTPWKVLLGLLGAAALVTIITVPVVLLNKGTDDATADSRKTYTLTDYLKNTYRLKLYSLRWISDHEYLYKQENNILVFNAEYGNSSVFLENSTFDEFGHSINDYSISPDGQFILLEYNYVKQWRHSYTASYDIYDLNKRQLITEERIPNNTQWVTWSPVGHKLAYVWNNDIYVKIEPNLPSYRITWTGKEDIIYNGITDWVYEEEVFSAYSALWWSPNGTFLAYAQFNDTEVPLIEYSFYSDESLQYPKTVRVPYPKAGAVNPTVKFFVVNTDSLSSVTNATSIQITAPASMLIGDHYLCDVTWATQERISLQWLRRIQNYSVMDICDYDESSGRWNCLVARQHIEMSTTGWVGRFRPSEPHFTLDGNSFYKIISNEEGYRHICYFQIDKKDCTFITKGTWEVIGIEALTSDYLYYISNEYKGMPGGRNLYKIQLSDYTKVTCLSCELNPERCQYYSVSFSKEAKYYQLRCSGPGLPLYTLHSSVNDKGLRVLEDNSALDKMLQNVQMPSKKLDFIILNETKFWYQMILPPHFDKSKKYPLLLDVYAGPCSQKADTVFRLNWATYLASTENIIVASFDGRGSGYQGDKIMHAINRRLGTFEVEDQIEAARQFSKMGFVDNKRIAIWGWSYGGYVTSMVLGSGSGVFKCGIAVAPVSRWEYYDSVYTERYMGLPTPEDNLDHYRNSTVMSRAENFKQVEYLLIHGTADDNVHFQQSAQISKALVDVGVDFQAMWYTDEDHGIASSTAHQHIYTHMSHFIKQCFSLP

Dipeptidyl peptidase 4 [7] = molecular target: T1, Dipeptidyl peptidase 4; experiment: Inhibition of human recombinant DPP-4 using H-Gly-Pro-aminomethylcoumarin as substrate at 100 uM relative to control
Target sequence in this assay (P27487 whole entry, looked up): as the sequence (P27487 whole entry) above

Dipeptidyl peptidase 4 [8] = molecular target: T1, Dipeptidyl peptidase 4; format: cell-based, Caco-2
Target sequence in this assay (P27487 whole entry): as above

Mus musculus [9] = experiment: Hypoglycemic activity in C57BL/6J mouse assessed as reduction in blood glucose level at 10 mg/kg, po measured at 20 to 80 mins by OGTT analysis; format: functional; design: scale not given: the % may be the effect or the level left; conditions: time 20-80 min
Mus musculus [10] = experiment: Hypoglycemic activity in ICR mouse assessed as reduction in blood glucose level at 1 mg/kg; format: ADME, organism-based; design: scale not given: the % may be the effect or the level left; conditions: in vivo
[11] = Blood glucose AUC in ICR mouse at 15 mg/kg; conditions: in vivo
Mus musculus [12] = experiment: Hypoglycemic activity in KKAy mouse assessed as reduction in blood glucose level at 10 mg/kg; format: ADME, organism-based; design: scale not given: the % may be the effect or the level left; conditions: in vivo
[13] = Bioavailability in rat; format: ADME, organism-based; conditions: in vivo
Dipeptidyl peptidase 4 [14] = molecular target: T1, Dipeptidyl peptidase 4
Target sequence in this assay (P27487 whole entry): as above

[15] = Bioavailability in monkey; format: ADME, organism-based, Macaca mulatta; conditions: rhesus monkey, in vivo
[16] = Bioavailability in dog; format: ADME, organism-based, Canis lupus familiaris; conditions: in vivo
Dipeptidyl peptidase 4 [17] = molecular target: T1, Dipeptidyl peptidase 4; remark: listed apart in the source
Target sequence in this assay (P27487 whole entry, looked up): as the sequence (P27487 whole entry) above

[18] = Antioxidant activity assessed as DPPH radical scavenging activity; format: functional
Dipeptidyl peptidase 4 [19] = molecular target: T1, Dipeptidyl peptidase 4; experiment: Inhibition of DPP-4 (unknown origin) using (H-Gly-Pro-AMC) as substrate
Target sequence in this assay (P27487 whole entry): as above

[20] = Half life in Sprague-Dawley rat at 3 mg/kg, po; format: ADME, organism-based; conditions: in vivo
Mus musculus [21] = experiment: Antidiabetic activity in ICR mouse assessed as decrease in AUC of glucose at 10 mg/kg, po; format: functional; design: scale not given: the % may be the effect or the level left
Mus musculus [22] = experiment: Antidiabetic activity in ICR mouse assessed as decrease in AUC of glucose at 3 mg/kg, po; format: functional; design: scale not given: the % may be the effect or the level left
Dipeptidyl peptidase 4 [23] = molecular target: T1, Dipeptidyl peptidase 4; remark: listed apart in the source
Target sequence in this assay (P27487 whole entry): as above

Dipeptidyl peptidase 4 [24] = molecular target: T1, Dipeptidyl peptidase 4; experiment: Inhibition of human recombinant DPP-4 at 25 uM using Gly-Pro-Aminomethylcoumarin as substrate by Spectra max fluorometer analysis relative to control
Target sequence in this assay (P27487 whole entry, looked up): as the sequence (P27487 whole entry) above

[25] = Oral bioavailability in KKAy mouse at 10 to 30 mg/kg; format: ADME, organism-based; conditions: in vivo, dose 10-30 mg/kg
Mus musculus [26] = experiment: Hypoglycemic activity in KKAy mouse assessed as reduction in blood glucose level at 30 mg/kg; format: ADME, organism-based; design: scale not given: the % may be the effect or the level left; conditions: in vivo
Mus musculus [27] = experiment: Hypoglycemic activity in ICR mouse assessed as reduction in blood glucose level at 3 mg/kg; format: ADME, organism-based; design: scale not given: the % may be the effect or the level left; conditions: in vivo
Mus musculus [28] = experiment: Hypoglycemic activity in ICR mouse assessed as reduction in blood glucose level at 30 mg/kg; format: ADME, organism-based; design: scale not given: the % may be the effect or the level left; conditions: in vivo
[29] = Half life in KKAy mouse at 10 to 30 mg/kg; format: ADME, organism-based; conditions: in vivo, dose 10-30 mg/kg
Mus musculus [30] = experiment: Hypoglycemic activity in ICR mouse assessed as reduction in blood glucose level at 10 mg/kg; format: ADME, organism-based; design: scale not given: the % may be the effect or the level left; conditions: in vivo
Mus musculus [31] = experiment: Hypoglycemic activity in C57BL/6J mouse assessed as reduction in blood glucose level at 5 mg/kg, iv measured for 180 mins; format: ADME, organism-based; design: scale not given: the % may be the effect or the level left; conditions: in vivo, 3 h
Homo sapiens [32] = species on record: Homo sapiens; experiment: Selectivity index, ratio of IC50 for DPP-8 (unknown origin) to IC50 for DPP-4 (unknown origin)
Homo sapiens [33] = species on record: Homo sapiens; experiment: Selectivity index, ratio of IC50 for DPP-9 (unknown origin) to IC50 for DPP-4 (unknown origin)
Mus musculus [34] = experiment: Hypoglycemic activity in C57BL/6J mouse assessed as reduction in blood glucose level at 10 mg/kg, iv measured for 180 mins; format: ADME, organism-based; design: scale not given: the % may be the effect or the level left; conditions: in vivo, 3 h
Mus musculus [35] = experiment: Hypoglycemic activity in C57BL/6J mouse assessed as reduction in blood glucose level at 20 mg/kg, iv measured for 180 mins; format: ADME, organism-based; design: scale not given: the % may be the effect or the level left; conditions: in vivo, 3 h
[36] = Metabolic stability in human liver microsomes assessed as intrinsic clearance; format: ADME, Microsome; conditions: read-out: CLH
[37] = MRT in ICR mouse at 1 to 10 mg/kg, po; format: ADME, organism-based; conditions: in vivo, dose 1-10 mg/kg
[38] = Half life in ICR mouse at 1 to 10 mg/kg, po; format: ADME, organism-based; conditions: in vivo, dose 1-10 mg/kg
[39] = Tmax in ICR mouse at 1 to 10 mg/kg, po; format: ADME, organism-based; conditions: in vivo, dose 1-10 mg/kg
[40] = Cmax in ICR mouse at 1 to 10 mg/kg, po; format: ADME, organism-based; design: route po; conditions: in vivo, dose 1-10 mg/kg

SMILES: NCC1CN(CCCc2ccc3c(c2)OCO3)C(=O)CC1c1cc(F)ccc1F (centres undefined)
- Activity (Mus musculus [1]): 38.9%

- Ki (Dipeptidyl peptidase 9): > 30000 nM
- Ki (Dipeptidyl peptidase 8): > 30000 nM
SMILES: Cc1nc2cc(-c3ccccc3Cl)nn2c(-c2ccc(Cl)cc2Cl)c1CO

- Activity (Mus musculus [2]): 33.53%
- Activity (Mus musculus [3]): 35%
- Ratio IC50 (Homo sapiens [4]): 192
- Ratio IC50 (Homo sapiens [5]): 215
- IC50 (Dipeptidyl peptidase 4 [6]): 130 nM
- inhibition (Dipeptidyl peptidase 4 [7]): 75%
SMILES: NCc1c(-c2ccc(Cl)cc2Cl)nc2ccccn12

SMILES: CS(=O)(=O)c1cccc(C(=O)NC[C@@H]2CCCN2C(=O)C[C@H](N)[C@H]2CCc3cc(F)c(F)cc32)c1
- IC50 (Dipeptidyl peptidase 4 [8]): 1.06 nM
- Activity (Mus musculus [9]): 40%

- Activity (Mus musculus [10]): 24.1%
- glucose AUC [11]: 904 mmol/L/min
- Activity (Mus musculus [12]): 30%
SMILES: N#C[C@@H]1CCCN1C(=O)CNC12CC3CC(CC(O)(C3)C1)C2 [VILDAGLIPTIN]

- Ratio IC50 (Homo sapiens [4]): > 340
- Ratio IC50 (Homo sapiens [5]): > 340
- IC50 (Dipeptidyl peptidase 4 [6]): 290 nM
- inhibition (Dipeptidyl peptidase 4 [7]): 59%
SMILES: Cc1ccccc1-c1nc2ccccn2c1CN

- bioavailability [13]: 57%
- IC50 (Dipeptidyl peptidase 4 [14]): 4.3 nM
- bioavailability [15]: 87%
- bioavailability [16]: 91%
SMILES: CC1c2nnc(C(F)(F)F)n2CCN1C(=O)C[C@H](N)Cc1cc(F)c(F)cc1F.Cl (some centres undefined)

- IC5 (Dipeptidyl peptidase 4 [17]): 6.25 µM
SMILES: NNC1=NC(N2C(=O)CSC2=O)=NC(NN)N1 (centres undefined)

- IC50 [18]: 51.23 µg/mL (≈ 88.3 µM)
SMILES: O=[N+]([O-])c1cccc(/C=N/N2C(c3ccccc3)=Nc3ccc(I)cc3C2Nc2nccs2)c1 (centres undefined)

- IC50 (Dipeptidyl peptidase 4 [19]): 1.12 nM
SMILES: Cc1ccc2cc(CNc3nc(C)cs3)n(/N=C/c3ccc(O)cc3)c(=O)c2c1

- half-life [20]: 0.92 h
SMILES: N#C[C@@H]1C[C@H]2[C@H](CC2(F)F)N1C(=O)[C@@H](N)C12CC3CC(CC(O)(C3)C1)C2

SMILES: Cn1c(=O)cc(N2CCC[C@@H](N)C2)n(Cc2ccccc2C#N)c1=O [ALOGLIPTIN]
- Activity (Mus musculus [21]): 42.5%

SMILES: CC#CCn1c(N2CCC[C@@H](N)C2)cc(=O)n(Cc2cn(C/C=C/C(=O)O)nn2)c1=O
- Activity (Mus musculus [22]): 28.1%
- IC50 (Dipeptidyl peptidase 4 [23]): 9.56 nM

- inhibition (Dipeptidyl peptidase 4 [24]): 52.9%
SMILES: Cc1cc(=O)oc2cc(NC(=O)CN3CCNCC3)ccc12

- bioavailability [25]: 21.8%
- Activity (Mus musculus [26]): 26.4%
- Activity (Mus musculus [27]): 27.36%
- Activity (Mus musculus [28]): 27.57%
- Activity (Mus musculus [10]): 18.75%
- half-life [29]: 5.4 h
- Activity (Mus musculus [30]): 29.13%
- Activity (Mus musculus [12]): 19.2%
SMILES: N#C[C@@H]1C[C@H](F)CN1C(=O)[C@@H](N)Cc1ccccc1

- Activity (Mus musculus [31]): 19.6%
- IC50 (Dipeptidyl peptidase 4 [14]): 28500 nM
- Ratio IC50 (Homo sapiens [32]): 8
- Ratio IC50 (Homo sapiens [33]): 8
- Activity (Mus musculus [34]): 33.6%
- Activity (Mus musculus [35]): 47.1%
SMILES: Brc1nc2n(n1)CC(c1cc3ccccc3o1)=NN2

- CLint scaled [36]: < 100 mL/min/kg
- MRT [37]: 2.72 h
- half-life [38]: 1.03 h
- Tmax [39]: 2 h
- Cmax [40]: 719 ng/mL
SMILES: N[C@@H](CCNC(=O)N1CCn2c(nnc2C(F)(F)F)C1)Cc1cc(F)c(F)cc1F
